Experimental data reported in US11780826B2 (Amgen Inc., priority 2017, dated 2023).

Tested on: Bovine cardiac myofibrils
Assay: In vitro model of dose-dependent myofibril ATPase modulation (AC1.4, pyruvate kinase/lactate dehydrogenase-coupled ATPase assay at pCa25)
Format: biochemical
Conditions: concentration at which ATPase activity was 1.4-fold higher than the bottom of the dose curve, mean of a minimum of two independent tests
Outline: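 Absorbance at 340 nm tracked ATP hydrolysis through pyruvate kinase/lactate dehydrogenase coupling (0.5 mM NADH, 1.5 mM PEP). Myofibrils from detergent-homogenized bovine heart, 1 mM ATP, pH 6.80, EGTA/CaCl2 buffering. Dose-response curves fitted with a four-parameter Hill equation.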

SMILES | AC1.4
O=C(NCc1ccc(C(F)(F)F)cc1)[C@H]1CCCN1C(=O)[C@H]1CCCN(S(=O)(=O)N2CC(F)(c3ccccc3)C2)C1 [Example 463, 1-(((3S)-1-((3-fluoro-3-phenyl-1-azetidinyl)sulfonyl)-3-piperidinyl)carbonyl)-N-(4-(trifluoromethyl)benzyl)-D-prolinamide] | 1.9305 µM
CON(C)S(=O)(=O)c1cccc(C(=O)N2CCC[C@@H]2C(=O)NCc2ccc(C(F)(F)F)cc2)c1 [Example 649, 1-(3-(methoxy(methyl)sulfamoyl)benzoyl)-N-(4-(trifluoromethyl)benzyl)-D-prolinamide] | 4.4365 µM
C[C@H](C(=O)N[C@H](C)c1ccc(C(F)(F)F)cc1)N(C)C(=O)[C@H]1CCCN(S(=O)(=O)N2CC(C#N)C2)C1 [Example 415, (3S)-1-((3-cyano-1-azetidinyl)sulfonyl)-N-methyl-N-((1R)-1-methyl-2-oxo-2-(((1R)-1-(4-(trifluoromethyl)phenyl)ethyl)amino)ethyl)-3-piperidinecarboxamide] | 1.522 µM
CCNc1ccc(C)cc1C(=O)N1C[C@H](O)C[C@@H]1C(=O)N[C@@H](c1cc(F)c(Cl)cc1F)C1COC1 [Example 34, (4R)-N-((R)-(4-chloro-2,5-difluorophenyl)(3-oxetanyl)methyl)-1-(2-(ethylamino)-5-methylbenzoyl)-4-hydroxy-D-prolinamide] | 0.0361 µM
N#CC1CN(S(=O)(=O)N2CCC[C@H](C(=O)N3CCC[C@@H]3C(=O)NCc3cc(F)ccc3F)C2)C1 [Example 394, 1-(((3S)-1-((3-cyano-1-azetidinyl)sulfonyl)-3-piperidinyl)carbonyl)-N-(2,5-difluorobenzyl)-D-prolinamide] | 1.3725 µM
C[C@@H](NC(=O)[C@H]1CCCN1C(=O)c1cccc(S(=O)(=O)N2CC(C#N)C2)c1)c1ccccc1 [Example 785, 1-((3-((3-cyano-1-azetidinyl)sulfonyl)phenyl)carbonyl)-N-((1R)-1-phenylethyl)-D-prolinamide] | 8.8883 µM
CN(Cc1ccc(C(F)(F)F)cc1)C(=O)[C@H]1CCCN1C(=O)c1cccc(S(=O)(=O)N2CC(C#N)C2)c1 [Example 75, 1-((3-((3-cyano-1-azetidinyl)sulfonyl)phenyl)carbonyl)-N-methyl-N-(4-(trifluoromethyl)benzyl)-D-prolinamide] | 0.1006 µM
Cc1ccc(C(C)NC(=O)[C@H]2CCCN2C(=O)[C@H]2CCCN(S(=O)(=O)N3CC(C#N)C3)C2)cc1F (stereo partly drawn) [Example 155, 1-(((3S)-1-((3-cyano-1-azetidinyl)sulfonyl)-3-piperidinyl)carbonyl)-N-(-1-(3-fluoro-4-methylphenyl)ethyl)-D-prolinamide] | 0.272 µM
CN(C)S(=O)(=O)c1cccc(C(=O)N2CCC[C@@H]2C(=O)N[C@@H](c2ccc(Cl)c(F)c2)C2CC2)c1 [Example 114, N-((R)-(4-chloro-3-fluorophenyl)(cyclopropyl)methyl)-1-(3-(dimethylsulfamoyl)benzoyl)-D-prolinamide] | 0.1771 µM
O=C(NCc1ccc(C(F)(F)F)cc1)[C@H]1CCCN1C(=O)[C@H]1CCCN(S(=O)(=O)N2CC[C@H](C(F)(F)F)C2)C1 [Example 384, N-(4-(trifluoromethyl)benzyl)-1-(((3S)-1-(((3S)-3-(trifluoromethyl)-1-pyrrolidinyl)sulfonyl)-3-piperidinyl)carbonyl)-D-prolinamide] | 1.295 µM
CCCCCOC1CN(S(=O)(=O)N2CCC[C@H](C(=O)N3CCC[C@@H]3C(=O)NCc3ccc(C(F)(F)F)cc3)C2)C1 [Example 536, 1-(((3S)-1-((3-(pentyloxy)-1-azetidinyl)sulfonyl)-3-piperidinyl)carbonyl)-N-(4-(trifluoromethyl)benzyl)-D-prolinamide] | 2.696 µM
O=C(NCc1ccc(C(F)(F)F)cc1)[C@H]1CCCN1C(=O)[C@H]1CCCN(S(=O)(=O)N2CC(OC(F)(F)F)C2)C1 [Example 535, 1-(((3S)-1-((3-(trifluoromethoxy)-1-azetidinyl)sulfonyl)-3-piperidinyl)carbonyl)-N-(4-(trifluoromethyl)benzyl)-D-prolinamide] | 2.69 µM
COc1ccc(F)cc1C(C)NC(=O)[C@H]1CCCN1C(=O)[C@H]1CCCN(S(=O)(=O)N2CC(C#N)C2)C1 (stereo partly drawn) [Example 633, (2R)-1-((S)-1-((3-cyanoazetidin-1-yl)sulfonyl)piperidine-3-carbonyl)-N-(1-(5-fluoro-2-methoxyphenyl)ethyl)pyrrolidine-2-carboxamide] | 4.0935 µM
N#CC1CN(S(=O)(=O)N2CCC[C@H](C(=O)N3CCC[C@@H]3C(=O)NCc3c(F)cccc3C(F)(F)F)C2)C1 [Example 659, 1-(((3S)-1-((3-cyano-1-azetidinyl)sulfonyl)-3-piperidinyl)carbonyl)-N-(2-fluoro-6-(trifluoromethyl)benzyl)-D-prolinamide] | 4.605 µM
CC(C)C1(O)CN(S(=O)(=O)N2CCC[C@H](C(=O)N3CCC[C@@H]3C(=O)NCc3ccc(C(F)(F)F)cc3F)C2)C1 [Example 332, N-(2-fluoro-4-(trifluoromethyl)benzyl)-1-(((3S)-1-((3-hydroxy-3-(2-propanyl)-1-azetidinyl)sulfonyl)-3-piperidinyl)carbonyl)-D-prolinamide] | 0.9097 µM
Cc1ccc([C@@H](C)NC(=O)[C@H]2CCCN2C(=O)[C@H]2CCCN(S(=O)(=O)N3CC(C#N)C3)C2)cc1 [Example 285, 1-(((3S)-1-((3-cyano-1-azetidinyl)sulfonyl)-3-piperidinyl)carbonyl)-N-((1R)-1-(4-methylphenyl)ethyl)-D-prolinamide] | 0.7351 µM
CCNc1ccc(C)cc1C(=O)N1C[C@@H](O)C[C@@H]1C(=O)N[C@@H](c1cc(F)c(Cl)cc1F)C1COC1 [Example 110, (4S)-N-((R)-(4-chloro-2,5-difluorophenyl)(3-oxetanyl)methyl)-1-(2-(ethylamino)-5-methylbenzoyl)-4-hydroxy-D-prolinamide] | 0.1732 µM
CS(=O)(=O)c1cccc(C(=O)N2C[C@@H](F)C[C@@H]2C(=O)N[C@@H](c2ccc(Cl)c(F)c2)C2COC2)c1 [Example 365, (4S)-N-((R)-(4-chloro-3-fluorophenyl)(3-oxetanyl)methyl)-4-fluoro-1-(3-(methylsulfonyl)benzoyl)-D-prolinamide] | 1.139 µM
COc1cc(F)cc(CNC(=O)[C@H]2CCCN2C(=O)[C@H]2CCCN(S(=O)(=O)N3CC(C#N)C3)C2)c1 [Example 681, 1-(((3S)-1-((3-cyano-1-azetidinyl)sulfonyl)-3-piperidinyl)carbonyl)-N-(3-fluoro-5-methoxybenzyl)-D-prolinamide] | 5.0425 µM

Next, values leading:

AC1.4 | SMILES
3.276 µM | CC(O)C(NC(=O)[C@H]1C[C@H]2C[C@H]2N1C(=O)c1cccc(S(C)(=O)=O)c1)c1ccc(C(F)(F)F)cc1F (stereo partly drawn) [Example 601, (1R,3R,5R)-N-(1-(2-fluoro-4-(trifluoromethyl)phenyl)-2-hydroxypropyl)-2-(3-(methylsulfonyl)benzoyl)-2-azabicyclo[3.1.0]hexane-3-carboxamide]
1.1055 µM | NS(=O)(=O)c1cccc(C(=O)N2CCCC[C@@H]2C(=O)N[C@@H](c2ccc(C(F)(F)F)cc2F)C2CC2)c1 [Example 359, (2R)-N-((R)-cyclopropyl(2-fluoro-4-(trifluoromethyl)phenyl)methyl)-1-(3-sulfamoylbenzoyl)-2-piperidinecarboxamide]
0.5074 µM | Cc1cc(C(=O)N2[C@@H](C(=O)N[C@@H](c3ccc(C(F)(F)F)cc3F)C3CC3)C[C@H]3C[C@H]32)c(NC2CCC2)cn1 [Example 230, (1R,3R,5R)-2-((5-(cyclobutylamino)-2-methyl-4-pyridinyl)carbonyl)-N-((R)-cyclopropyl(2-fluoro-4-(trifluoromethyl)phenyl)methyl)-2-azabicyclo[3.1.0]hexane-3-carboxamide]
2.4145 µM | CCS(=O)(=O)c1cccc(C(=O)N2[C@@H](C(=O)N[C@@H](c3ccc(C(F)(F)F)cc3)C3(O)CCC3)C[C@H]3C[C@H]32)c1 [Example 522, (1R,3R,5R)-2-(3-(ethylsulfonyl)benzoyl)-N-((S)-(1-hydroxycyclobutyl)(4-(trifluoromethyl)phenyl)methyl)-2-azabicyclo[3.1.0]hexane-3-carboxamide]
0.485 µM | NS(=O)(=O)c1cccc(C(=O)N2CCC[C@@H]2C(=O)N[C@@H](c2cc(F)c(Cl)cc2F)C2CC2)c1 [Example 224, N-((R)-(4-chloro-2,5-difluorophenyl)(cyclopropyl)methyl)-1-(3-sulfamoylbenzoyl)-D-prolinamide]
0.6468 µM | CS(=O)(=O)c1ccc(C(=O)N2C[C@@H](F)C[C@@H]2C(=O)N[C@@H](c2cc(F)c(Cl)cc2F)C2CC2)cn1 [Example 262, (4S)-N-((R)-(4-chloro-2,5-difluorophenyl)(cyclopropyl)methyl)-4-fluoro-1-((6-(methylsulfonyl)-3-pyridinyl)carbonyl)-D-prolinamide]
0.7195 µM | O=C(N[C@@H](c1cc(F)c(Cl)cc1F)C1COC1)[C@H]1C[C@H]2C[C@H]2N1C(=O)c1cncc(C(F)(F)F)c1 [Example 282, (1R,3R,5R)-N-((R)-(4-chloro-2,5-difluorophenyl)(3-oxetanyl)methyl)-2-((5-(trifluoromethyl)-3-pyridinyl)carbonyl)-2-azabicyclo[3.1.0]hexane-3-carboxamide]
0.7101 µM | CS(=O)(=O)c1ccc(N)c(C(=O)N2[C@@H](C(=O)N[C@@H](c3ccc(C(F)(F)F)cc3F)C3CC3)C[C@H]3C[C@H]32)c1 [Example 813, (1R,3R,5R)-2-(2-amino-5-(methylsulfonyl)benzoyl)-N-((R)-cyclopropyl(2-fluoro-4-(trifluoromethyl)phenyl)methyl)-2-azabicyclo[3.1.0]hexane-3-carboxamide]
0.4557 µM | CCS(=O)(=O)c1cccc(C(=O)N2CCC[C@@H]2C(=O)N[C@@H](c2ccc(C(F)(F)F)cc2F)C2CC2)c1 [Example 212, N-((R)-cyclopropyl(2-fluoro-4-(trifluoromethyl)phenyl)methyl)-1-(3-(ethylsulfonyl)benzoyl)-D-prolinamide]
